Results: PMC8535490, “Biotransformation of Flavonoids Improves Antimicrobial and Anti-Breast Cancer Activities In Vitro” (Foods, 2021)
Values after ≈ are worked out from the molar mass of the structure shown. Like-named read-outs stand apart in the source and are kept apart here.

Assays:
[1] = tested on: MCF-7 human breast cancer cells; experiment: Antiproliferative activity, methylene blue assay; type: cell-based; details: MCF-7 cells; for IC50: 72 h, mean ± SD, n = 3; for Increase in antiproliferation potency compared to unmethylated substrate: ratio of IC50 values
Protocol: (§1) Analysis of the antiproliferative activity of the test compounds was performed according to Zhu et al., with some modifications. MCF-7 human breast cancer cells were provided by the Cell Resource Center of the Chinese Academy of Sciences (Shanghai, China). Cell proliferation and cytotoxicity of anticancer activity were assessed using the methylene blue assay. For cell proliferation and cytotoxicity, MCF-7 cells were culture in a 96-well plate at 1.5 × 10^5 cells/well and at 3 × 10^5 cells/well, respectively. Various concentrations (75–400 µM) of the test samples were added to a growth medium containing MCF-7 cells followed by cultivation for […]. Following incubation for 72 h, cell proliferation was measured with an absorbance of 570 nm using a microplate reader (Bio-Rad, Hercules, MA, USA), while cell cytotoxicity measurement was carried out 24 h after incubation.

[2] = tested on: MCF-7 human breast cancer cells; experiment: Cytotoxicity, methylene blue assay; type: cell-based; details: at a concentration corresponding to the IC50 (hesperetin 150 μM), 24 h
Protocol: as §1

S. aureus ATCC6538 = experiment: Antimicrobial activity assay (broth culture in 96-well plate, CCK8 staining, MIC/MBC); type: cell-based, Staphylococcus aureus; details: for MBC / MIC: S. aureus ATCC6538, tested at 15–400 µM; for Growth inhibition: S. aureus ATCC 6538
Protocol: (§2) Antimicrobial biological activities of the tested compounds were evaluated as Zhong et al., with some modifications. Gram-positive and -negative bacteria and fungi (S. aureus ATCC6538, E. coli ATCC25922, and C. albicans SC5314) were selected for evaluation in the present study. S. aureus ATCC6538 and E. coli ATCC25922 were cultured with Luria-Bertani medium, while for C. albicans SC5314, potato dextrose broth medium was used for 24 h at 37 °C (bacterial suspension in 1 × 10^6 CFU/mL). […] Each strain was, respectively, transferred into a 96-well plate at 100 µL/well (90 µL bacterial suspension and 10 µL sample solution) after adding different concentrations of samples, followed by incubation for 12–16 h. The optical density at 650 nm (OD650) of C. albicans SC5314 was measured after TTC staining, while S. aureus ATCC6538 and E. coli ATCC25922 were stained for CCK8 before measurement.

E. coli ATCC25922 = experiment: as above; type: cell-based, Escherichia coli; details: for MBC / MIC: Escherichia coli, tested at 15–400 µM; for MBC / MIC / Growth inhibition: E. coli ATCC25922
Protocol: as §2

C. albicans SC5314 = experiment: Antimicrobial activity assay (broth culture in 96-well plate, TTC staining, MIC/MBC); type: cell-based, Candida albicans; details: for MIC / MBC: tested at 15–400 µM
Protocol: as §2

[3] = Candida albicans, C. albicans SC5314
[4] = Candida albicans, C. albicans SC5314, read-out: MBC

O=C1C[C@@H](c2ccc(O)cc2)Oc2cc(O)ccc21 [Compound 1, liquiritigenin, reference compound]
IC50 ([1]; Homo sapiens, MCF7): 101 ± 1.83 µM
Cytotoxicity on MCF-7 cells [2]: Slight cytotoxicity
MBC (S. aureus ATCC6538; Staphylococcus aureus): > 400 µM
MIC (S. aureus ATCC6538; Staphylococcus aureus): 75 µM (≈ 19.2 µg/mL)
MBC (E. coli ATCC25922): > 400 µM
MIC (E. coli ATCC25922): 25 µM (≈ 6.41 µg/mL)
MIC (C. albicans SC5314; [3]): 25 µM (≈ 6.41 µg/mL)
MBC (C. albicans SC5314; [4]): > 400 µM

COc1ccc([C@@H]2CC(=O)c3c(O)cc(O)cc3O2)cc1OC [Compound 3a, 3’-methoxy-hesperetin]
IC50 ([1]; Homo sapiens, MCF7): 10.5 ± 0.45 µM
Increase in antiproliferation potency compared to unmethylated substrate [1]: more than 14.35 fold
Cytotoxicity on MCF-7 cells [2]: Slight cytotoxicity
Growth inhibition (S. aureus ATCC6538): failed to inhibit the growth
Growth inhibition (E. coli ATCC25922): failed to inhibit the growth
MIC (C. albicans SC5314; [3]): 50 µM (≈ 15.8 µg/mL)
MBC (C. albicans SC5314; [4]): > 400 µM

COc1cc(O)c2c(c1)O[C@H](c1ccc(OC)c(OC)c1)CC2=O [Compound 3c, 7,3’-dimethoxy-hesperetin]
IC50 ([1]; Homo sapiens, MCF7): 31 ± 1.44 µM
Cytotoxicity on MCF-7 cells [2]: Slight cytotoxicity
Growth inhibition (S. aureus ATCC6538): failed to inhibit the growth
Growth inhibition (E. coli ATCC25922): failed to inhibit the growth
MIC (C. albicans SC5314; [3]): 75 µM (≈ 24.8 µg/mL)
MBC (C. albicans SC5314; [4]): > 400 µM

COc1ccc([C@@H]2CC(=O)c3c(O)cc(O)cc3O2)cc1O [Compound 3, hesperetin, reference compound]
IC50 ([1]; Homo sapiens, MCF7): > 150 µM
Cytotoxicity on MCF-7 cells [2]: Slight cytotoxicity
Growth inhibition (S. aureus ATCC6538): failed to inhibit the growth
Growth inhibition (E. coli ATCC25922): failed to inhibit the growth
MIC (C. albicans SC5314; [3]): 75 µM (≈ 22.7 µg/mL)
MBC (C. albicans SC5314; [4]): > 400 µM

COc1cc(O)c2c(c1)O[C@H](c1ccc(OC)c(O)c1)CC2=O [Compound 3b, 7-methoxy-hesperetin]
IC50 ([1]; Homo sapiens, MCF7): 30.7 ± 0.72 µM
Cytotoxicity on MCF-7 cells [2]: lowest
Cytotoxicity on MCF-7 cells ([2]; listed as 7-methoxyhesperetin): No cytotoxicity
Growth inhibition (S. aureus ATCC6538): failed to inhibit the growth
Growth inhibition (E. coli ATCC25922): failed to inhibit the growth
MIC (C. albicans SC5314; [3]): 25 µM (≈ 7.91 µg/mL)
MBC (C. albicans SC5314; [4]): > 400 µM

7-methoxy-naringenin [Compound 2a]
IC50 [1]: 93.6 ± 1.06 µM
Increase in antiproliferation potency compared to unmethylated substrate [1]: 1.34 fold
Cytotoxicity on MCF-7 cells [2]: highest
Cytotoxicity on MCF-7 cells ([2]; listed as 7-methoxynaringenin): Slight cytotoxicity
Growth inhibition (S. aureus ATCC6538): failed to inhibit the growth
Growth inhibition (E. coli ATCC25922): failed to inhibit the growth
Increase of highest antimicrobial activity compared to naringenin (C. albicans SC5314; C. albicans SC5314, highest activity): 182.12%
MBC (C. albicans SC5314; C. albicans SC5314): >400 >400 μM
MIC (C. albicans SC5314; C. albicans SC5314): 75 µM

COc1ccc2c(c1)O[C@H](c1ccc(O)cc1)CC2=O [Compound 1a, 7-methoxy-liquiritigenin]
IC50 ([1]; Homo sapiens, MCF7): 11.2 ± 0.6 µM
Increase in antiproliferation potency compared to unmethylated substrate [1]: 8.99 fold
Cytotoxicity on MCF-7 cells [2]: Slight cytotoxicity
Increase of antimicrobial activity compared to liquiritigenin (S. aureus ATCC6538; S. aureus ATCC6538, 250 μM): 148.77%
Increase of inhibitory effect compared to unmethylated counterpart (S. aureus ATCC6538; S. aureus ATCC6538, 250 μM): 1.49 fold
MIC (S. aureus ATCC6538): 75 µM (≈ 20.3 µg/mL)
MBC (S. aureus ATCC6538; Staphylococcus aureus): > 400 µM
MIC (S. aureus ATCC6538; Staphylococcus aureus): 75 µM (≈ 20.3 µg/mL)
Increase of antimicrobial activity compared to liquiritigenin (E. coli ATCC25922; E. coli ATCC25922, 400 μM): 54.41%
Increase of inhibitory effect compared to unmethylated counterpart (E. coli ATCC25922; E. coli ATCC25922, 400 μM): 0.54 fold
MBC (E. coli ATCC25922): > 400 µM
MIC (E. coli ATCC25922): 15 µM (≈ 4.05 µg/mL)
Increase (MIC) compared to the unmethylated substrate (C. albicans SC5314; C. albicans SC5314): 3 fold
Increase of antimicrobial activity compared to liquiritigenin (C. albicans SC5314; C. albicans SC5314, 200 μM): 765.64%
Increase of inhibitory effect compared to unmethylated counterpart (C. albicans SC5314; C. albicans SC5314, 200 μM): 7.65 fold
MIC (C. albicans SC5314; C. albicans SC5314): 25 µM (≈ 6.76 µg/mL)
MIC (C. albicans SC5314; [3]): 25 µM (≈ 6.76 µg/mL)
MBC (C. albicans SC5314; [4]): > 400 µM

O=C1C[C@@H](c2ccc(O)cc2)Oc2cc(O)cc(O)c21 [Compound 2, naringenin, reference compound]
IC50 ([1]; Homo sapiens, MCF7): 126 ± 2.76 µM
Cytotoxicity on MCF-7 cells [2]: Slight cytotoxicity
Growth inhibition (S. aureus ATCC6538): failed to inhibit the growth
Growth inhibition (E. coli ATCC25922): failed to inhibit the growth
MIC (C. albicans SC5314; [3]): 75 µM (≈ 20.4 µg/mL)
MBC (C. albicans SC5314; [4]): > 400 µM
